Values joined by “and” are separate entries in the source; they are usually repeats but may differ in a detail not shown here. Equal entries are not always repeated.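 Five concentrations, 48 hours, 96-well plates. GI50: concentration for 50% inhibition of growth. TGI denotes the concentration required for complete inhibition of growth.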
How the values were obtained:
Assay in all cases: DTP human tumour cell line panel, 48 h
IGROV1 ovarian = system: IGROV1 ovarian
UACC-62 melanoma = system: UACC-62 melanoma
SK-MEL-28 melanoma = system: SK-MEL-28 melanoma
RXF 393 renal = system: RXF 393 renal
TK-10 renal = system: TK-10 renal
HT29 colon = system: HT29 colon
HCT-15 colon = system: HCT-15 colon
OVCAR-3 ovarian = system: OVCAR-3 ovarian
BT-549 breast = system: BT-549 breast
MCF7 breast = system: MCF7 breast

Structure (SMILES) | GI50 (IGROV1 ovarian) | TGI (IGROV1 ovarian) | GI50 (UACC-62 melanoma) | TGI (UACC-62 melanoma) | GI50 (SK-MEL-28 melanoma) [µM] | TGI (SK-MEL-28 melanoma) | GI50 (RXF 393 renal) | TGI (RXF 393 renal) | TGI (TK-10 renal) | GI50 (HT29 colon) [µM] | TGI (HT29 colon) | TGI (HCT-15 colon) [µM] | GI50 (OVCAR-3 ovarian) | TGI (OVCAR-3 ovarian) | GI50 (HCT-15 colon) | TGI (BT-549 breast) [µM] | TGI (MCF7 breast) [µM] | GI50 (BT-549 breast) [µM] | GI50 (TK-10 renal) [µM] | GI50 (MCF7 breast) [µM]
O=C1[C@@H]2C(c3ccc(Br)cc3)=NO[C@@H]2C(=O)N1c1ccc(Cc2ccc(N3C(=O)[C@H]4C(c5ccc(Br)cc5)=NO[C@H]4C3=O)cc2)cc1 | > 40 µM | > 40 µM | > 40 µM | > 40 µM | > 40 | > 40 µM | > 40 µM | > 40 µM | > 40 µM | > 40 | > 40 µM | > 40 | > 40 µM | > 40 µM | – | – | – | – | – | –
CN=c1ss/c(=N\C(=S)N(C)C)n1C | – | > 100 µM | – | > 100 µM | – | > 100 µM | – | > 100 µM | > 100 µM | – | > 100 µM | > 100 | – | – | – | – | – | – | – | –
COc1cc(C2c3cc4c(cc3[C@@H](NCCN(C)C)C3COC(=O)[C@H]23)OCO4)cc(OC)c1O (stereo partly specified) | 0.391 µM and 1.06 µM | 2.39 µM and 3.57 µM | 0.0319 µM and 0.088 µM | 0.319 µM and 0.834 µM | – | 2.14 µM and 3.38 µM | 0.301 µM and 1.11 µM | 2.08 µM and 4.37 µM | 3.58 µM and 5.2 µM | 1.36 | 5 µM | 2.63 | – | 2.81 µM and 3.31 µM | 1.02 µM | – | – | – | – | –
Cc1ccccc1N=Nc1c(O)ccc2ccccc12 | – | > 100 µM | – | > 100 µM | – | > 100 µM | – | > 100 µM | > 100 µM | – | > 100 µM | > 100 | – | > 100 µM | – | > 100 | – | – | – | –
C[C@H]1CC[P+](Cc2ccccc2)(c2ccccc2)C1 (stereo partly specified) | – | > 100 µM | – | > 100 µM | – | > 100 µM | – | > 100 µM | > 100 µM | – | > 100 µM | > 100 | – | > 100 µM | – | – | – | – | – | –
O=C1CC2OCC=C3CN4CCC56c7ccccc7N1C5C2C3CC46O (stereo unspecified) | – | > 100 µM | – | > 100 µM | – | > 100 µM | – | – | > 100 µM | – | > 100 µM | > 100 | – | > 100 µM | – | > 100 | > 100 | – | – | –
NC(N)=N/N=C/c1c(-c2ccsc2)nc2n1CCS2 | 48.8 µM | > 100 µM | 21.6 µM | 69.9 µM | – | – | 30.5 µM | > 100 µM | 61.1 µM | 51 | > 100 µM | 72.7 | 0.365 µM | 24.1 µM | 24.7 µM | 78.7 | 50.2 | 33.9 | 26 | 18
COc1ccc(-c2cc(=O)c3c(O)c(OC)c(OC)c(OC)c3o2)cc1OC | – | > 100 µM | – | > 100 µM | – | > 100 µM | – | – | > 100 µM | – | > 100 µM | > 100 | – | > 100 µM | – | > 100 | > 100 | – | – | –
Nc1nncc2c1c(Br)cn2C1OC(CO)C(O)C1O (stereo unspecified) | – | > 100 µM | – | > 100 µM | – | > 100 µM | – | > 100 µM | > 100 µM | – | > 100 µM | > 100 | – | > 100 µM | – | – | – | – | – | –
CN(C)CCNC(=O)c1cccc2c1nc(-c1ccc(F)cc1)c1ccccc12 | – | 16.8 µM | – | 14.8 µM | – | 20.3 µM | – | 12 µM | 16.6 µM | – | 15.1 µM | 13.9 | – | 18.7 µM | – | – | – | – | – | –
CC(=O)C1CCN(c2ccccc2)C1 (stereo unspecified) | – | > 100 µM | – | > 100 µM | – | > 100 µM | – | > 100 µM | > 100 µM | – | > 100 µM | – | – | > 100 µM | – | – | – | – | – | –
CC(C)(C)c1cc(CCC(=O)Nc2ccc(Cl)cc2)[nH]c(=S)n1 | – | > 100 µM | – | > 100 µM | – | > 100 µM | – | > 100 µM | > 100 µM | – | > 100 µM | > 100 | – | > 100 µM | – | – | – | – | – | –
COC1C2C[C@@H](O)CCC2C(C(=O)OCCl)C[C@H]1O (stereo partly specified) | – | > 100 µM | – | > 100 µM | – | > 100 µM | – | > 100 µM | > 100 µM | – | – | > 100 | – | > 100 µM | – | – | – | – | – | –
COC1=C(N)C(=O)c2nc(-c3nc(C(=O)O)c(C)c(-c4ccc(OC)c(OC)c4O)c3N)ccc2C1=O | 0.00237 µM and 0.0223 µM and 0.0183 µM | 0.0196 µM and 0.125 µM and 0.0589 µM | 0.00103 µM and 0.000879 µM and < 0.01 µM | – | – | – | – | 15 nM [middle of 4 runs] | 0.00795 µM and 0.0706 µM | – | 0.0337 µM and 0.0342 µM and 0.0663 µM | – | 0.0283 µM and 0.0169 µM | 0.0395 µM | 0.00144 µM and 0.00832 µM and < 0.01 µM | – | – | – | – | –
NC(=O)c1ccc2c(c1)-c1nc-2nc2[n-]c(nc3nc(nc4[n-]c(n1)c1ccc(C(N)=O)cc41)-c1ccc(C(N)=O)cc1-3)c1ccc(C(N)=O)cc21.[Co+2] | > 50 µM | > 50 µM | > 50 µM | > 50 µM | > 50 | > 50 µM | – | – | > 50 µM | > 50 | > 50 µM | > 50 | > 50 µM | > 50 µM | > 50 µM | – | – | – | > 50 | –
C=C1C(=O)O[C@H]2[C@H]1CC/C(COC(=O)c1cc(OC)c(OC)c(OC)c1)=C\CC[C@@]1(C)O[C@@H]21 | 0.477 µM | 2.05 µM | 1.18 µM | 2.67 µM | 1.59 | 3.37 µM | 0.299 µM | 1.27 µM | 2.7 µM | 0.441 | 2.09 µM | 1.82 | 0.39 µM | 1.44 µM | 0.418 µM | 2.35 | – | 1.06 | 1.22 | –
COc1cccc(/C=C/C(=O)c2ccc3cc(OC)ccc3c2)c1 | 4.05 µM | 21.7 µM | 8.35 µM | 21.9 µM | 12.6 | 48.1 µM | – | – | 46.4 µM | – | – | 30.8 | 9.67 µM | 22.8 µM | 9.73 µM | 17.7 | > 50 | 8.07 | 15.6 | 15.4
NC1NC=NC2C1N=CN2C1OC(CO)C2[O][Sn][O]C21 (stereo unspecified) | > 100 µM | > 100 µM | > 100 µM | > 100 µM | > 100 | > 100 µM | > 100 µM | > 100 µM | > 100 µM | > 100 | > 100 µM | > 100 | > 100 µM | > 100 µM | 0.384 µM | – | – | – | > 100 | –
CC(C)N(C(=O)C12C3C4C1C1C2C3C41C#N)C(C)C (stereo unspecified) | – | > 100 µM | – | > 100 µM | – | > 100 µM | – | > 100 µM | > 100 µM | – | > 100 µM | > 100 | – | > 100 µM | – | – | – | – | – | –
